Active and inactive are the calls of the source. Rule as the data show it, for most assays here: actives have a measured Kd and inactives only a lower limit.
Assays:
[1] = molecular target: T1, Peroxisomal acyl-coenzyme A oxidase 3 (Homo sapiens, UniProt O15254)
T1 sequence (O15254 whole entry): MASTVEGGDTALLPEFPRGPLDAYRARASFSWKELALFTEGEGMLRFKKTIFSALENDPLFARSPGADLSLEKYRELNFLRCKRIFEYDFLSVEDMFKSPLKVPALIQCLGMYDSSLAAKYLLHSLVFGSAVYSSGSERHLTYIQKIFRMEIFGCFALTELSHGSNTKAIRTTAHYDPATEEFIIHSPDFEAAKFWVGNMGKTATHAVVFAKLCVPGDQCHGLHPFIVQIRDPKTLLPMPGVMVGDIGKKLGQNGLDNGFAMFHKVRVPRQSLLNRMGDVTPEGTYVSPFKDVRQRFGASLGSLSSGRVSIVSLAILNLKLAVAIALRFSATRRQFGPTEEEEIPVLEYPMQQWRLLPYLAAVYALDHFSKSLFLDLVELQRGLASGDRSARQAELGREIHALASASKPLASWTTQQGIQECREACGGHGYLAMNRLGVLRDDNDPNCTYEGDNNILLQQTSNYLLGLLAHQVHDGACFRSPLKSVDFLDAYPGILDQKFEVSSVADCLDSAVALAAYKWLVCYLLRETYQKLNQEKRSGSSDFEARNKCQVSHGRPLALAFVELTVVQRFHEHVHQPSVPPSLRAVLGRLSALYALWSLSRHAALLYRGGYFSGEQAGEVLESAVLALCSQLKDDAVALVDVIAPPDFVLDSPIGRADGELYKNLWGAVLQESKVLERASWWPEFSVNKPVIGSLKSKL

[2] = molecular target: Serine/threonine-protein kinase 16 (Homo sapiens, UniProt O75716)
[3] = molecular target: Tyrosine-protein kinase FRK (Homo sapiens, UniProt P42685)
[4] = molecular target: Cyclin-dependent kinase 1 (Homo sapiens, UniProt P06493)
[5] = molecular target: T2, Serine/threonine-protein kinase D2 (Homo sapiens, UniProt Q9BZL6)
T2 sequence (Q9BZL6 whole entry): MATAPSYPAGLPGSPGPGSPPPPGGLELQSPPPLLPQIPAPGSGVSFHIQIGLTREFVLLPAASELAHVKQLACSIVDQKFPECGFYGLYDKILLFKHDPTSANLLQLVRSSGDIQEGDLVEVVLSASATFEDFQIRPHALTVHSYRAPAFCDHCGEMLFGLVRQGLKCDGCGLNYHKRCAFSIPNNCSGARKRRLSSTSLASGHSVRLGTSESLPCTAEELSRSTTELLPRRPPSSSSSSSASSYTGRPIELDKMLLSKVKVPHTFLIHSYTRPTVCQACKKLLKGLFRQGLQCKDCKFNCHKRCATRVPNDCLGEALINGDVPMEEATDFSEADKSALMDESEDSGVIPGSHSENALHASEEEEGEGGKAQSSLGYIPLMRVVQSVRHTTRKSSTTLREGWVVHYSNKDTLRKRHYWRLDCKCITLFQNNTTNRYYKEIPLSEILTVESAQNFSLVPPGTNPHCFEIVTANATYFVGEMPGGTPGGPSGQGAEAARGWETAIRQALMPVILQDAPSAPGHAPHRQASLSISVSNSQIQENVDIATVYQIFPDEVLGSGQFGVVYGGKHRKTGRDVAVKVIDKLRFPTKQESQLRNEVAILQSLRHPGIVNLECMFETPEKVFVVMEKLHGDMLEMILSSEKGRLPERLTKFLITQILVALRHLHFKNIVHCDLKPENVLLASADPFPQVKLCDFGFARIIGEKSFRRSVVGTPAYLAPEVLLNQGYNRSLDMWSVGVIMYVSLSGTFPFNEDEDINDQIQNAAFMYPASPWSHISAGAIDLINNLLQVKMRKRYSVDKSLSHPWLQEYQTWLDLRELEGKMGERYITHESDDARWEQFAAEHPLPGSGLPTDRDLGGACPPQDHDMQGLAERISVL

Activin receptor type-1 = molecular target: T3, Activin receptor type-1 (Homo sapiens, UniProt Q04771)
T3 sequence (Q04771 whole entry): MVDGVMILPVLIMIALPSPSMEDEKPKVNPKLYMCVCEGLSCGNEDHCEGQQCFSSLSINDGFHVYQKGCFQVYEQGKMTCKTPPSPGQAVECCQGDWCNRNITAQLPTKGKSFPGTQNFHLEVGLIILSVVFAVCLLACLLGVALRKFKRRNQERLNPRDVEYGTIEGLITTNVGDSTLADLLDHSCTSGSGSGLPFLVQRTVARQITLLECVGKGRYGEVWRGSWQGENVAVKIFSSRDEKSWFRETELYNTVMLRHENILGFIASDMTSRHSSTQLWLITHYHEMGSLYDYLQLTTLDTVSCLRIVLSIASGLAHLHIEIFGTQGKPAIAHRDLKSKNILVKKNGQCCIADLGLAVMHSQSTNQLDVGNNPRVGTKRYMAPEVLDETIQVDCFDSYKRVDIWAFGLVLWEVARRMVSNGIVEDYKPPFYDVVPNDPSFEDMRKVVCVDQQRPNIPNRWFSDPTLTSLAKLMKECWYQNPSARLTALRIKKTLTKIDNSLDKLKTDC

[6] = molecular target: T4, Phosphatidylinositol 5-phosphate 4-kinase type-2 gamma (Homo sapiens, UniProt Q8TBX8)
T4 sequence (Q8TBX8 whole entry): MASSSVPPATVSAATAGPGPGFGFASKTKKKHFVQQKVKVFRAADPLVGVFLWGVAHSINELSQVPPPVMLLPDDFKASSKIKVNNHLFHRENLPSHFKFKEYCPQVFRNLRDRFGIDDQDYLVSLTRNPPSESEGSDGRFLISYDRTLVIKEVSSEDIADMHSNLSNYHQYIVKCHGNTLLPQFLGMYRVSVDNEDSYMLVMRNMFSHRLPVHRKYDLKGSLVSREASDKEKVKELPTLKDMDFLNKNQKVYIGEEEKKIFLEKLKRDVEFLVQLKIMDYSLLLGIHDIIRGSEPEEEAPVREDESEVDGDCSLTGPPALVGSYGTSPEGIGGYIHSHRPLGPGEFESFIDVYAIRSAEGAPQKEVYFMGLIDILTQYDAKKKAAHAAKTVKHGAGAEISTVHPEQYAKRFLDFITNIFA
Also: in the data inactive means no Kd found up to 30 µM.

Chain of Serine/threonine-protein kinase 16 (O75716 whole entry): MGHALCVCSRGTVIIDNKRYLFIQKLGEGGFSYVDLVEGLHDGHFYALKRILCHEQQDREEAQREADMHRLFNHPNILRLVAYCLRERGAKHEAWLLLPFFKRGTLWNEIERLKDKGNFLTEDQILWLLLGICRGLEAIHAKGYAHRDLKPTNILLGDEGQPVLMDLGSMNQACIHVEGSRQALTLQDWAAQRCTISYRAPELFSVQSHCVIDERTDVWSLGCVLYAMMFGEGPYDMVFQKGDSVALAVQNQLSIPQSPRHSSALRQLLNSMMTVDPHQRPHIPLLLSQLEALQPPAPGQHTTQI
Chain of Tyrosine-protein kinase FRK (P42685 whole entry): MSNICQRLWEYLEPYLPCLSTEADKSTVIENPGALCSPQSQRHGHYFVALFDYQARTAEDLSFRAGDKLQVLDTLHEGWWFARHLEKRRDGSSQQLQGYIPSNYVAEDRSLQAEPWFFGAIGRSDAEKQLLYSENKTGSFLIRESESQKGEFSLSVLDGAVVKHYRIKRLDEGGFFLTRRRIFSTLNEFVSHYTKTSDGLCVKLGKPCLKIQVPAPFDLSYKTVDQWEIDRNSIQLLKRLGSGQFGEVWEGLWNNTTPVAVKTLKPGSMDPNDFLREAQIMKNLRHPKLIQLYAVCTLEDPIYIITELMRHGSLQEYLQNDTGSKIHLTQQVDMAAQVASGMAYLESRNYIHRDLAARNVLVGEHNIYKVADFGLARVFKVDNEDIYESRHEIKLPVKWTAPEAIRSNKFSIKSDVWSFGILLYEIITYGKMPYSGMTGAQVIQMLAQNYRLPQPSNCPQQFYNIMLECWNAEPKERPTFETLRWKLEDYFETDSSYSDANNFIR
Chain of Cyclin-dependent kinase 1 (P06493 whole entry): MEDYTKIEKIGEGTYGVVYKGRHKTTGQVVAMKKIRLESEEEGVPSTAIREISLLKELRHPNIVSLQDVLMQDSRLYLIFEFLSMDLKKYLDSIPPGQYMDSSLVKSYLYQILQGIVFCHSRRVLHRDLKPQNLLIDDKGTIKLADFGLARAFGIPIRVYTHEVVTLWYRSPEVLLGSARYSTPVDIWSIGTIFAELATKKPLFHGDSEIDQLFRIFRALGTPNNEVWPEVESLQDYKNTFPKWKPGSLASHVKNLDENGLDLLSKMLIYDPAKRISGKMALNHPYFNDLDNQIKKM

Kd [1]	Kd [2]	Kd [3]	Kd [4]	Kd [5]	Kd (Activin receptor type-1)	Kd [6]	Structure (SMILES)
2.6 µM (active)	> 30 µM (inactive)	> 30 µM (inactive)	> 30 µM (inactive)	> 30 µM (inactive)	> 30 µM (inactive)	> 30 µM (inactive)	CCc1cc2c(cc1N1CCC(N3CCOCC3)CC1)C(C)(C)c1[nH]c3cc(C#N)ccc3c1C2=O [ALECTINIB]
> 30 µM (inactive)	> 30 µM (inactive)	> 30 µM (inactive)	> 30 µM (inactive)	> 30 µM (inactive)	> 30 µM (inactive)	> 30 µM (inactive)	Cc1ccc(C(=O)Nc2ccc(Oc3cc4cnn(C)c4cc3-c3cn[nH]c3)c(F)c2)c(=O)n1-c1ccc(F)cc1 [MERESTINIB]
> 30 µM (inactive)	> 30 µM (inactive)	> 30 µM (inactive)	> 30 µM (inactive)	0.056 µM (active)	> 30 µM (inactive)	> 30 µM (inactive)	c1cc(OCCN2CCCCC2)cc(-c2n[nH]c3ccc(-c4nc[nH]n4)cc23)c1 [CC-401]
> 30 µM (inactive)	> 30 µM (inactive)	> 30 µM (inactive)	> 30 µM (inactive)	> 30 µM (inactive)	> 30 µM (inactive)	> 30 µM (inactive)	O=C(NOC[C@H](O)CO)c1ccc(F)c(F)c1Nc1ccc(I)cc1F [MIRDAMETINIB]
> 30 µM (inactive)	> 30 µM (inactive)	0.33 µM (active)	> 30 µM (inactive)	> 30 µM (inactive)	> 30 µM (inactive)	> 30 µM (inactive)	CCOc1ccn(-c2ccc(F)cc2)c(=O)c1C(=O)Nc1ccc(Oc2ccnc(N)c2Cl)c(F)c1 [BMS-777607]
> 30 µM (inactive)	> 30 µM (inactive)	> 30 µM (inactive)	> 30 µM (inactive)	> 30 µM (inactive)	> 30 µM (inactive)	> 30 µM (inactive)	C[C@@H]1COC(Nc2ccc3ncnc(Nc4ccc(OCc5nccs5)c(Cl)c4)c3c2)=N1 [VARLITINIB]
> 30 µM (inactive)	> 30 µM (inactive)	0.56 µM (active)	> 30 µM (inactive)	> 30 µM (inactive)	> 30 µM (inactive)	2.9 µM (active)	COc1cc2nccc(Oc3ccc(NC(=O)C4(C(=O)Nc5ccc(F)cc5)CC4)cc3)c2cc1OC [CABOZANTINIB]
> 30 µM (inactive)	> 30 µM (inactive)	> 30 µM (inactive)	> 30 µM (inactive)	> 30 µM (inactive)	> 30 µM (inactive)	> 30 µM (inactive)	CNC(=O)c1cccc(-c2ccc3c(N4CCOC[C@@H]4C)nc(N4CCOC[C@@H]4C)nc3n2)c1 [VISTUSERTIB]
> 30 µM (inactive)	> 30 µM (inactive)	> 30 µM (inactive)	> 30 µM (inactive)	> 30 µM (inactive)	> 30 µM (inactive)	> 30 µM (inactive)	S=C(NCc1ccc2c(c1)OCO2)N1CCN(c2ncnc3c2oc2ccccc23)CC1 [AMUVATINIB]
> 30 µM (inactive)	> 30 µM (inactive)	> 30 µM (inactive)	> 30 µM (inactive)	> 30 µM (inactive)	> 30 µM (inactive)	4.79 µM (active)	COc1ccc(-c2ccc3ncc4c(c3c2)n(-c2ccc(N3CCNCC3)c(C(F)(F)F)c2)c(=O)n4C)cn1 [BGT-226 FREE BASE]
> 30 µM (inactive)	> 30 µM (inactive)	> 30 µM (inactive)	> 30 µM (inactive)	> 30 µM (inactive)	> 30 µM (inactive)	> 30 µM (inactive)	COc1cc2ncnc3c2cc1OCCCCCN(C)Cc1ccc(Br)cc1N3 [JNJ-26483327]
> 30 µM (inactive)	> 30 µM (inactive)	> 30 µM (inactive)	> 30 µM (inactive)	> 30 µM (inactive)	> 30 µM (inactive)	> 30 µM (inactive)	O=C(Nc1ccc(OC(F)(F)F)cc1)c1sccc1NCc1ccnc2ccccc12 [OSI-930]
> 30 µM (inactive)	> 30 µM (inactive)	> 30 µM (inactive)	> 30 µM (inactive)	> 30 µM (inactive)	> 30 µM (inactive)	> 30 µM (inactive)	COc1cc2ncnc(Nc3ccc(F)c(Cl)c3)c2cc1NC(=O)/C=C/CN1CCCCC1 [DACOMITINIB ANHYDROUS]
> 30 µM (inactive)	> 30 µM (inactive)	> 30 µM (inactive)	> 30 µM (inactive)	> 30 µM (inactive)	> 30 µM (inactive)	> 30 µM (inactive)	COc1ccc2c(OCc3nnc4ccc(-c5ccccc5)nn34)ccnc2c1 [AMG-208]
> 30 µM (inactive)	> 30 µM (inactive)	> 30 µM (inactive)	> 30 µM (inactive)	> 30 µM (inactive)	> 30 µM (inactive)	> 30 µM (inactive)	O=C(NC[C@H](O)CO)c1ccncc1Nc1ccc(I)cc1F [PIMASERTIB]
> 30 µM (inactive)	> 30 µM (inactive)	> 30 µM (inactive)	> 30 µM (inactive)	> 30 µM (inactive)	> 30 µM (inactive)	4.66 µM (active)	C#Cc1cccc(Nc2ncnc3cc4c(cc23)OCCOCCOCCO4)c1 [ICOTINIB]

Structure (SMILES)	Kd [1]	Kd [2]	Kd [3]	Kd [4]	Kd [5]	Kd (Activin receptor type-1)	Kd [6]
C=CCN(/C=C1/C(=O)O[C@H](COC)[C@@]2(C)C1=C(O)C(=O)C1=C2[C@H](OC(C)=O)C[C@]2(C)C(=O)CC[C@@H]12)CC=C [SONOLISIB]	> 30 µM (inactive)	> 30 µM (inactive)	> 30 µM (inactive)	> 30 µM (inactive)	> 30 µM (inactive)	> 30 µM (inactive)	> 30 µM (inactive)
C=CC(=O)Nc1cc(Nc2nccc(-c3cn(C)c4ccccc34)n2)c(OC)cc1N(C)CCN(C)C [OSIMERTINIB]	> 30 µM (inactive)	> 30 µM (inactive)	> 30 µM (inactive)	> 30 µM (inactive)	> 30 µM (inactive)	> 30 µM (inactive)	2.97 µM (active)
Cc1c(Cn2c(C)nc3c(C(=O)O)cc(N4CCOCC4)cc32)cccc1C(F)(F)F [GSK-2636771]	> 30 µM (inactive)	> 30 µM (inactive)	> 30 µM (inactive)	> 30 µM (inactive)	> 30 µM (inactive)	> 30 µM (inactive)	> 30 µM (inactive)

Reference: ChEMBL document CHEMBL3991601, “The target landscape of clinical kinase drugs” (Science, 2017)
